Consider eleven molecules from patent publication US9200171B2, “AZO compound and ink containing the compound” (MITSUBISHI CHEMICAL CORPORATION, priority 2011, dated 2015).

Converted amounts (≈) assume the structure as drawn.

Data set [1] is described as follows: Solubility C (saturated concentration at 5° C.) of compound in low-polarity solvent and product εC. The data set is classed as physicochemical. The note with it: for ε · C: C at 5° C.; for solubility at 24 h: organic solvent or mixture, thermodynamic from solid; for solubility at 24 h / Solubility: at 5° C. The protocol:
The solubility C of each compound in each solvent was measured as follows.
Each compound was added to each solvent until a dissolution residue came to remain, and the mixture was subjected to an ultrasonic treatment for 30 minutes at 30° C. After the mixture was allowed to stand at 5° C. for 24 hours, centrifugal filtration was performed through a filter of 0.1 μm using a microcentrifuge (centrifugal force 5200×g). The resulting saturated solution was diluted to an appropriate concentration, and measurement of absorption spectra was performed on Hitachi spectrophotometer U-4100 using a quartz cell having an optical path length for measurement of 10 mm. The concentration of each compound was determined from a relationship between the absorbance at the absorption-maximum wavelength λmax (nm) and the molar extinction coefficient ε (L·mol^−1·cm^−1) previously measured, and the solubility C (mol·L^−1) was calculated. Moreover, the value of the product of the molar extinction coefficient ε (L·mol^−1·cm^−1) and the solubility C (mol·L^−1), εC, was determined.
Sudan Black B (manufactured by Tokyo Chemical Industry Co., Ltd.) that is a commercially available oil-soluble black dye was added to n-decane (relative permittivity 2.0, solubility in water 1 mg/L or less) until a dissolution residue came to remain, and the mixture was subjected to an ultrasonic treatment for 30 minutes at 30° C. After the mixture was allowed to stand at 5° C. for 24 hours, centrifugal filtration was performed through a filter of 0.1 μm using a microcentrifuge (centrifugal force 5200×g). The resulting saturated n-decane solution was diluted to an appropriate concentration.

The nature of data set [2]: Absorption-maximum wavelength λmax, molar extinction coefficient ε and solution colour in each solvent. The class given is physicochemical. On the procedure: Each of the compounds 1 to 15 and the comparative example compounds 1 and 2 (1 mg each) was dissolved in each solvent (100 ml) and measurement of absorption spectra was performed on Hitachi spectrophotometer U-4100 using a quartz cell having an optical path length for measurement of 10 mm. From the resulting spectra, absorption-maximum wavelength λmax (nm) and molar extinction coefficient ε ([…]) were determined.

[3] abbreviates: Isopar M, at absorption-maximum wavelength.
Setting [4] is: n-decane, at absorption-maximum wavelength.
The mark [5] stands for this setting: tetradecane, at absorption-maximum wavelength.
The mark [6] stands for this setting: mixed solvent of n-decane/Isopar L (mixing ratio 1/1).

In the case of `CCCCC(CC)CNc1ccc(NCC(CC)CCCC)c2c1C(=O)c1ccccc1C2=O` (stereo not drawn) [Comparative example compound 1, reference compound], the “ε · C” value worked out at 1200 cm⁻¹ in data set [1] (Isopar M), 460 cm⁻¹ in data set [1] (n-decane) and 1600 cm⁻¹ in data set [1] (tetradecane). Also, the solubility at 24 h in data set [1] (in Isopar M) was 71 mM (≈ 32.9 mg/mL); in data set [1] (in n-decane) it was 27 mM (≈ 12.5 mg/mL); in data set [1] (in tetradecane), 94 mM (≈ 43.5 mg/mL). Besides, the Absorption-maximum wavelength amounted to 651 nm in data set [2] (Isopar M), 652 nm in data set [2] (n-decane) and 651 nm in data set [2] (tetradecane). The Color tone entry in data set [2] (Isopar M solution), in data set [2] (n-decane solution) and in data set [2] (tetradecane solution) was “blue” each time. Also, the ε in data set [2] (setting [3]), in data set [2] (setting [4]) and in data set [2] (setting [5]) was 17000 L/mol/cm each time.

`C=CCn1c(N=Nc2ccc(N(CCC)CCC)cc2NC(C)=O)nc(C#N)c1C#N` [Comparative example compound 2, reference compound]: the “ε · C” value in data set [1] (Isopar M), in data set [1] (n-decane) and in data set [1] (tetradecane) was ≤ 10 or cm^−1 throughout. Besides, the solubility at 24 h in data set [1] (in Isopar M), in data set [1] (in n-decane) and in data set [1] (in tetradecane) was at most 0.01 mM each time. In addition, the Absorption-maximum wavelength in data set [2] (Isopar M) is 514 nm; in data set [2] (n-decane), 512 nm; in data set [2] (tetradecane), 514 nm. The Color tone result in data set [2] (Isopar M solution), in data set [2] (n-decane solution) and in data set [2] (tetradecane solution) was “red” in each case. The ε in data set [2] (setting [3]) is 39000 L/mol/cm; in data set [2] (setting [4]), 34000 L/mol/cm; in data set [2] (setting [5]) it was 39000 L/mol/cm.

Take `CCCCc1ccc(N=Nc2cc(C#N)c(/N=N/c3ccc(N(CC(CC)CCCC)CC(CC)CCCC)cc3NC(C)=O)s2)cc1` (stereo not drawn) [Compound 1]: the “ε · C” value in data set [1] (n-decane) was 1800 cm⁻¹. In addition, the solubility at 24 h in data set [1] (in n-decane) amounted to 24 mM (≈ 16.1 mg/mL). Moreover, the Absorption-maximum wavelength in data set [2] (n-decane) was determined as 619 nm. Also, in data set [2] (n-decane solution), the Color tone result is “blue”. The molecule also displayed a ε in data set [2] (setting [4]) of 76000 L/mol/cm.

`CCCCC(CC)CN(CC(CC)CCCC)c1ccc(N=Nc2sc(N=Nc3ccc(C(=O)OCC(C)C)cc3)cc2C#N)c(CC)c1` (stereo not drawn) [Compound 2]: the Solubility in data set [1] (in n-decane) and in data set [1] (in tetradecane) was 27 mM (≈ 18.5 mg/mL) each time. Besides, the “ε · C” value in data set [1] (n-decane) and in data set [1] (tetradecane) was 1500 cm⁻¹ in each case. Also, the results for the Absorption-maximum wavelength in data set [2] (n-decane) and in data set [2] (tetradecane) were 635 nm and 637 nm, respectively. Moreover, the Color tone result in data set [2] (n-decane solution) and in data set [2] (tetradecane solution) was “blue” in each case. Moreover, the ε in data set [2] (setting [4]) amounted to 57000 L/mol/cm; in data set [2] (setting [5]), 54000 L/mol/cm.

As to `CCCCc1ccc(N=Nc2cc(C#N)c(N=Nc3cc(OC)c(N(CC(CC)CCCC)CC(CC)CCCC)cc3NC(C)=O)s2)cc1` (stereo not drawn) [Compound 3], the “ε · C” value in data set [1] (Isopar L) is 8200 cm⁻¹; in data set [1] (Isopar M), 11100 cm⁻¹; in data set [1] (setting [6]) it was 4700 cm⁻¹; in data set [1] (n-decane) it was 9900 cm⁻¹; in data set [1] (tetradecane), 10600 cm⁻¹. In addition, the Solubility in data set [1] (in Isopar L) came out at 110 mM (≈ 77 mg/mL); in data set [1] (in Isopar M), 150 mM (≈ 105 mg/mL); in data set [1] (in mixed solvent of n-decane/Isopar L (mixing ratio 1/1)), 63 mM; in data set [1] (in n-decane), 140 mM (≈ 98 mg/mL); in data set [1] (in tetradecane), 150 mM (≈ 105 mg/mL). For the same molecule, the Absorption-maximum wavelength is reported as 667 nm in data set [2] (Isopar L); 668 nm in data set [2] (Isopar M); 667 nm in data set [2] (setting [6]); 667 nm in data set [2] (n-decane); 669 nm in data set [2] (tetradecane). The Color tone result in data set [2] (Isopar L solution), in data set [2] (Isopar M solution), in data set [2] (setting [6]), in data set [2] (n-decane solution) and in data set [2] (tetradecane solution) was “blue” each time. Besides, the ε amounted to 75000 L/mol/cm in data set [2] (Isopar L, at absorption-maximum wavelength); 72000 L/mol/cm in data set [2] (setting [3]); 75000 L/mol/cm in data set [2] (setting [6]); 73000 L/mol/cm in data set [2] (setting [4]); 73000 L/mol/cm in data set [2] (setting [5]).

Take `CCCCC(CC)CN(CC(CC)CCCC)c1ccc(/N=N/c2sc(N=Nc3ccc(C(=O)OCC(C)C)cc3)cc2C#N)c(C(C)C)c1` (stereo not drawn) [Compound 4]: the results for the “ε · C” value in data set [1] (n-decane) and in data set [1] (tetradecane) were 1800 cm⁻¹ and 1300 cm⁻¹, respectively. The values for the solubility at 24 h in data set [1] (in n-decane) and in data set [1] (in tetradecane) were 27 mM (≈ 18.9 mg/mL) and 20 mM (≈ 14 mg/mL), respectively. For the same molecule, the Absorption-maximum wavelength in data set [2] (n-decane) is 638 nm; in data set [2] (tetradecane), 640 nm. For the same molecule, the Color tone result in data set [2] (n-decane solution) and in data set [2] (tetradecane solution) was “blue” throughout. The ε in data set [2] (setting [4]) is 66000 L/mol/cm; in data set [2] (setting [5]), 64000 L/mol/cm.

Take `CCCCCc1ccc(N=Nc2cc(C#N)c(/N=N/c3cc(OC)c(N(CC(CC)CCCC)CC(CC)CCCC)cc3NC(C)=O)s2)cc1` (stereo not drawn) [Compound 5]: in data set [1] (n-decane), the “ε · C” value came to 16000 cm⁻¹. Further, in data set [1] (in n-decane), the solubility at 24 h was found to be 220 mM (≈ 157 mg/mL). Besides, the Absorption-maximum wavelength in data set [2] (n-decane) amounted to 667 nm. The Color tone entry in data set [2] (n-decane solution) is reported as “blue”. The molecule also returned a ε in data set [2] (setting [4]) of 75000 L/mol/cm.

Take `CCCCC(CC)COC(=O)c1ccc(N=Nc2cc(C#N)c(N=Nc3ccc(N(CC(CC)CCCC)CC(CC)CCCC)cc3C)s2)cc1` (stereo not drawn) [Compound 6]: the “ε · C” value in data set [1] (Isopar M) was 10400 cm⁻¹; in data set [1] (n-decane) it was 7000 cm⁻¹; in data set [1] (tetradecane), 9300 cm⁻¹. For the same molecule, the values for the Solubility in data set [1] (in Isopar M), in data set [1] (in n-decane) and in data set [1] (in tetradecane) were 160 mM (≈ 116 mg/mL), 110 mM (≈ 80 mg/mL) and 140 mM (≈ 102 mg/mL), respectively. Further, the Absorption-maximum wavelength in data set [2] (Isopar M) was determined as 634 nm; in data set [2] (n-decane) it was 633 nm; in data set [2] (tetradecane) it was 635 nm. Besides, the Color tone entry in data set [2] (Isopar M solution), in data set [2] (n-decane solution) and in data set [2] (tetradecane solution) was “blue” each time. The values for the ε in data set [2] (setting [3]), in data set [2] (setting [4]) and in data set [2] (setting [5]) were 65000 L/mol/cm, 66000 L/mol/cm and 65000 L/mol/cm, respectively.

As to `CCCCc1ccc(N=Nc2cc(C#N)c(N=Nc3cc(OC)c(N(CC(CC)CCCC)CC(CC)CCCC)cc3C)s2)cc1` (stereo not drawn) [Compound 7], the Solubility in data set [1] (in n-decane) turned out to be 140 mM (≈ 92 mg/mL). The “ε · C” value in data set [1] (n-decane) came out at 6900 cm⁻¹. In data set [2] (n-decane), the Absorption-maximum wavelength is 640 nm. In data set [2] (n-decane solution), the Color tone result is “blue”. Also, the ε in data set [2] (setting [4]) was found to be 50000 L/mol/cm.

For `CCCCC(CC)COC(=O)c1ccc(N=Nc2cc(C#N)c(N=Nc3ccc(N(CC(CC)CCCC)CC(CC)CCCC)cc3NC(C)=O)s2)cc1` (stereo not drawn) [Compound 8], the “ε · C” value in data set [1] (Isopar M) was found to be 3400 cm⁻¹; in data set [1] (n-decane), 4700 cm⁻¹; in data set [1] (tetradecane) it was 3500 cm⁻¹. In addition, the Solubility was 44 mM (≈ 33.9 mg/mL) in data set [1] (in Isopar M), 59 mM (≈ 45.4 mg/mL) in data set [1] (in n-decane) and 44 mM (≈ 33.9 mg/mL) in data set [1] (in tetradecane). The results for the Absorption-maximum wavelength in data set [2] (Isopar M), in data set [2] (n-decane) and in data set [2] (tetradecane) were 638 nm, 637 nm and 639 nm, respectively. Also, the Color tone entry in data set [2] (Isopar M solution), in data set [2] (n-decane solution) and in data set [2] (tetradecane solution) was “blue” throughout. In addition, the ε in data set [2] (setting [3]) worked out at 78000 L/mol/cm; in data set [2] (setting [4]) it was 79000 L/mol/cm; in data set [2] (setting [5]), 79000 L/mol/cm.

As to `CCCCC(CC)CN(CC(CC)CCCC)c1cc(NC(C)=O)c(/N=N/c2nc(Cl)c(C=O)s2)cc1OC` (stereo not drawn) [Compound 9], the “ε · C” value in data set [1] (Isopar M) was 2000 cm⁻¹; in data set [1] (n-decane), 3300 cm⁻¹; in data set [1] (tetradecane), 3300 cm⁻¹. In addition, the solubility at 24 h in data set [1] (in Isopar M) was 34 mM (≈ 19.7 mg/mL); in data set [1] (in n-decane) it was 58 mM (≈ 33.5 mg/mL); in data set [1] (in tetradecane) it was 34 mM (≈ 19.7 mg/mL). Besides, the Absorption-maximum wavelength in data set [2] (Isopar M) is recorded as 618 nm; in data set [2] (n-decane), 617 nm; in data set [2] (tetradecane) it was 618 nm. In addition, the Color tone result in data set [2] (Isopar M solution), in data set [2] (n-decane solution) and in data set [2] (tetradecane solution) was “blue” throughout. Further, the ε in data set [2] (setting [3]) is 59000 L/mol/cm; in data set [2] (setting [4]), 57000 L/mol/cm; in data set [2] (setting [5]), 59000 L/mol/cm.
